Assay results taken from PubChem BioAssay (NCI).
Several values for one entry are separate records, joined by “and”; a condition that tells them apart may be missing. Equal values may be shown once.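 The compound was tested at five concentrations on cells cultured in 96-well plates, with a 48-hour exposure period. GI50: concentration for 50% inhibition of growth. TGI is the concentration that stops growth completely.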

Experiments:
Assay in all cases: NCI-60 cell line screen, 48 h
[1] = tested on: KM12 colon
[2] = tested on: NCI-H226 lung
[3] = tested on: NCI-H23 lung
[4] = tested on: OVCAR-5 ovarian
[5] = tested on: SNB-75 CNS
[6] = tested on: SR leukemia
[7] = tested on: SW-620 colon
[8] = tested on: U251 CNS
[9] = tested on: COLO 205 colon
[10] = tested on: HL-60(TB) leukemia

Compound | TGI [1] | TGI [2] | TGI [3] | TGI [4] | TGI [5] | TGI [6] | TGI [7] | TGI [8] | GI50 [9] | TGI [9] | GI50 [10] | TGI [10] | GI50 [1] | GI50 [2] | GI50 [3] | GI50 [4] | GI50 [5] | GI50 [7] | GI50 [8]
Cc1ccc(C2=C(c3ccc(C)cc3)C(c3ccc(C)cc3)=C(c3ccc(C)cc3)C2=O)cc1 | > 100 µM | > 100 µM | > 100 µM | > 100 µM | > 100 µM | > 100 µM | > 100 µM | > 100 µM |  |  |  |  |  |  |  |  |  |  | 
O=C(CCSc1ccnc2c(C(F)(F)F)cccc12)N/N=C/c1cc(Cl)c(Cl)cc1Cl | 77.9 µM | 39.3 µM | 52.1 µM | 64.6 µM | 46.1 µM |  | 43.4 µM | 32.4 µM | 24.6 µM | 67.7 µM | 32.2 µM | 58 µM | 29.7 µM | 17.6 µM | 24.1 µM | 26.1 µM | 20 µM | 23.8 µM | 18.4 µM
CCOC(=O)N1C(c2ccccc2)C=CC(c2ccccc2)N1C(=O)OCC (configuration not stated) | > 100 µM |  | > 100 µM | > 100 µM | > 100 µM | > 100 µM | > 100 µM | > 100 µM |  | > 100 µM |  |  |  |  |  |  |  |  | 
NCc1c(C(N)=O)ncn1Cc1ccccc1 |  |  | > 100 µM |  | > 100 µM |  | > 100 µM | > 100 µM |  | > 100 µM |  | > 100 µM |  |  |  |  |  |  | 
Cn1c(=O)c(C(=O)NC(=O)NCCCCCOC(=O)CCCCCCCCCCC(=O)OCCCCCNC(=O)NC(=O)c2cn(Cc3ccccc3)c(=O)n(C)c2=O)cn(Cc2ccccc2)c1=O | > 100 µM | > 100 µM | > 100 µM | > 100 µM | > 100 µM |  | > 100 µM | > 100 µM |  | > 100 µM |  | > 100 µM |  |  |  |  |  |  | 
O=C(Nc1ccc(Br)cc1)C(=O)C(C(=O)c1ccccc1F)C1OC(=O)c2ccccc21 (configuration not stated) | > 100 µM | 19.7 µM | 43.6 µM | > 100 µM | 51.6 µM |  | > 100 µM | 51.8 µM |  | 45.2 µM |  | 75.6 µM |  |  |  |  |  |  | 
CC(=O)[O-].[Zn].c1ccc(/C(=N\Nc2ccccn2)c2ccccn2)cc1 |  | 0.962 µM and 5.73 µM | 19.3 µM |  | 2.63 µM |  | 1.63 µM | 1.88 µM |  |  |  | 0.0048 µM and 0.0138 µM |  | 0.212 µM |  |  |  | 0.0319 µM | 0.482 µM
N#C/C(=C\c1c(-c2ccccc2)[nH]c2ccccc12)C(=O)c1ccccc1 | 19.4 µM | > 100 µM | > 100 µM | > 100 µM | 34 µM |  | > 100 µM | 27.4 µM | 5.02 µM | > 100 µM |  |  | 1.96 µM | 6.83 µM | 16 µM | > 100 µM | 3.2 µM | 2.97 µM | 4.73 µM
Clc1cc(-c2ccccc2)nc2ccccc12 | 77.5 µM | 92.9 µM | > 100 µM | > 100 µM | 83.5 µM |  | > 100 µM | > 100 µM |  | 37.5 µM |  | 53.3 µM |  |  |  |  |  |  | 
Clc1ccc(CNc2nccc(-c3cnn4ncccc34)n2)cc1 | 15.5 µM | > 25 µM | 22.8 µM | 24.7 µM | 12.8 µM |  | > 25 µM | > 25 µM | 4.86 µM | 9.76 µM | 8.69 µM | > 22.3 µM | 5.55 µM | 7.79 µM | 6.74 µM | 7.66 µM | 6.28 µM | 8.42 µM | 6.73 µM
CCN(CC)c1ccc(N=C2C=C(Cl)C(=O)c3ncccc32)c(C)c1 |  |  | 11.3 µM |  | 88.3 µM |  | 17.3 µM | 18 µM |  | 15.8 µM |  | 4.72 µM |  |  |  |  |  |  | 
N#Cc1ccc(Oc2cccc(Oc3ccccc3)c2)cc1C#N | > 100 µM |  | > 100 µM | > 100 µM | 31.6 µM |  | > 100 µM | > 100 µM | > 100 µM | > 100 µM |  | > 100 µM | > 100 µM |  |  | > 100 µM |  |  | 
O=C(O)c1ccccc1N=Nc1ccc2oc(=O)c(C(=O)Nc3ccccc3)cc2c1 | > 100 µM | > 100 µM | > 100 µM |  | 98.3 µM |  | > 100 µM | > 100 µM |  | > 100 µM |  | 66.9 µM |  |  |  |  |  |  | 
c1ccc(B2OCC(C3OB(c4ccccc4)OC4COB(c5ccccc5)OC43)O2)cc1 (configuration not stated) | > 100 µM |  | > 100 µM | > 100 µM | > 100 µM | > 100 µM | > 100 µM | > 100 µM |  | > 100 µM |  |  |  |  |  |  |  |  | 
CCn1c(=O)c2ccccc2n2c(=O)c3cc4ccccc4cc3nc12 | > 100 µM | > 100 µM | > 100 µM | > 100 µM | 95.3 µM |  | > 100 µM | > 100 µM |  | > 100 µM |  | > 100 µM |  |  |  |  |  |  | 
